Where a name gives a salt, the structure may show the parent alone. Read-outs that look alike come from different tables or passages of the source.
Tests used:
Experiment in all cases: AK assay 384-well format, Prestwick library screening
E. cloacae = assay type: cell-based, Enterobacter cloacae; details: 50 μM final drug concentration; for fold induction at 50 µM: Enterobacter cloacae, 3 h
E. faecium = assay type: cell-based, Enterococcus faecium; details: 50 μM final drug concentration; for fold induction at 50 µM: Enterococcus faecium, 3 h
K. pneumoniae = assay type: cell-based, Klebsiella pneumoniae; details: 50 μM final drug concentration; for fold induction at 50 µM: Klebsiella pneumoniae, 3 h
[1] = system: A. baumannii strain 98-37-09; assay type: cell-based, Acinetobacter baumannii; details: 50 μM final drug concentration; for fold induction at 50 µM: Acinetobacter baumannii, 983709, 3 h
E. coli = assay type: cell-based, Escherichia coli; details: 50 μM final drug concentration; for fold induction at 50 µM: Escherichia coli, 3 h
[2] = system: S. aureus strain USA300-0114; assay type: cell-based, Staphylococcus aureus; details: 50 μM final drug concentration; for fold induction at 50 µM: Staphylococcus aureus, USA300, 3 h
P. aeruginosa = assay type: cell-based, Pseudomonas aeruginosa; details: 50 μM final drug concentration; for fold induction at 50 µM: Pseudomonas aeruginosa, 3 h
[3] = planktonic, […], read-out: AK-based Prestwick Library Screening Results, E. cloacae (fold increase in extracellular AK activity)
[4] = planktonic, […], read-out: AK-based Prestwick Library Screening Results, E. faecium (fold increase in extracellular AK activity)
[5] = planktonic, […], read-out: AK-based Prestwick Library Screening Results, K. pneumoniae (fold increase in extracellular AK activity)
[6] = planktonic, […], read-out: AK-based Prestwick Library Screening Results, A. baumannii (fold increase in extracellular AK activity)
[7] = planktonic, […], read-out: AK-based Prestwick Library Screening Results, E. coli (fold increase in extracellular AK activity)
[8] = planktonic, […], read-out: AK-based Prestwick Library Screening Results, S. aureus (fold increase in extracellular AK activity)
[9] = planktonic, […], read-out: AK-based Prestwick Library Screening Results, P. aeruginosa (fold increase in extracellular AK activity)
[10] = planktonic E. cloacae, cutoff for positive-scoring molecules 3-fold increase, read-out: AK-based Prestwick Library Screening Results, E. cloacae (increase in extracellular AK activity)
[11] = planktonic E. faecium, cutoff for positive-scoring molecules 3-fold increase, read-out: AK-based Prestwick Library Screening Results, E. faecium (increase in extracellular AK activity)
[12] = planktonic K. pneumoniae, cutoff for positive-scoring molecules 3-fold increase, read-out: AK-based Prestwick Library Screening Results, K. pneumoniae (increase in extracellular AK activity)
[13] = planktonic A. baumannii, cutoff for positive-scoring molecules 3-fold increase, read-out: AK-based Prestwick Library Screening Results, A. baumannii (increase in extracellular AK activity)
[14] = planktonic E. coli, cutoff for positive-scoring molecules 3-fold increase, read-out: AK-based Prestwick Library Screening Results, E. coli (increase in extracellular AK activity)
[15] = planktonic S. aureus, cutoff for positive-scoring molecules 3-fold increase, read-out: AK-based Prestwick Library Screening Results, S. aureus (increase in extracellular AK activity)
[16] = planktonic P. aeruginosa, cutoff for positive-scoring molecules 3-fold increase, read-out: AK-based Prestwick Library Screening Results, P. aeruginosa (increase in extracellular AK activity)
[17] = planktonic, cutoff for positive-scoring molecules 3-fold increase

C[C@@]12C(=O)OC(=O)[C@]1(C)[C@H]1CC[C@@H]2O1 [Cantharidin]
fold induction at 50 µM (E. cloacae; [3]): 0.6 | fold induction at 50 µM (E. faecium; [4]): 0.8 | fold induction at 50 µM (K. pneumoniae; [5]): 0.6 | fold induction at 50 µM [1, 6]: 0.5 | fold induction at 50 µM (E. coli; [7]): 0.6 | fold induction at 50 µM [2, 8]: 0.5 | fold induction at 50 µM (P. aeruginosa; [9]): 0.5

C[C@@H]1CCC[C@H](C)N1NC(=O)c1ccc(Cl)c(S(N)(=O)=O)c1 [Clopamide]
fold induction at 50 µM (E. cloacae; [10]): 1 | fold induction at 50 µM (E. faecium; [11]): 0.9 | fold induction at 50 µM (K. pneumoniae; [12]): 0.7 | fold induction at 50 µM [1, 13]: 0.8 | fold induction at 50 µM (E. coli; [14]): 0.8 | fold induction at 50 µM [2, 15]: 0.7 | fold induction at 50 µM (P. aeruginosa; [16]): 0.8

Nc1ccc(S(=O)(=O)Nc2ccccn2)cc1 [Sulfapyridine]
fold induction at 50 µM (E. cloacae; [3]): 1.6 | fold induction at 50 µM (E. faecium; [4]): 1 | fold induction at 50 µM (K. pneumoniae; [5]): 0.9 | fold induction at 50 µM [1, 6]: 2.2 | fold induction at 50 µM (E. coli; [7]): 1.2 | fold induction at 50 µM [2, 8]: 1.4 | fold induction at 50 µM (P. aeruginosa; [9]): 1.1

CCCNC(C)C(=O)Nc1c(C)csc1C(=O)OC (stereo not drawn) [Articaine hydrochloride]
fold induction at 50 µM (E. cloacae; planktonic E. cloacae, positive cutoff 3-fold increase, read-out: AK-based Prestwick library screening result, E. cloacae (fold increase in extracellular AK activity)): 1.6 | fold induction at 50 µM (E. faecium; planktonic E. faecium, positive cutoff 3-fold increase, read-out: AK-based Prestwick library screening result, E. faecium (fold increase in extracellular AK activity)): 1.2 | fold induction at 50 µM (K. pneumoniae; planktonic K. pneumoniae, positive cutoff 3-fold increase, read-out: AK-based Prestwick library screening result, K. pneumoniae (fold increase in extracellular AK activity)): 1.1 | fold induction at 50 µM ([1]; planktonic A. baumannii, positive cutoff 3-fold increase, read-out: AK-based Prestwick library screening result, A. baumannii (fold increase in extracellular AK activity)): 1.2 | fold induction at 50 µM (E. coli; planktonic E. coli, positive cutoff 3-fold increase, read-out: AK-based Prestwick library screening result, E. coli (fold increase in extracellular AK activity)): 1.1 | fold induction at 50 µM ([2]; planktonic S. aureus, positive cutoff 3-fold increase, read-out: AK-based Prestwick library screening result, S. aureus (fold increase in extracellular AK activity)): 1.1 | fold induction at 50 µM (P. aeruginosa; planktonic P. aeruginosa, positive cutoff 3-fold increase, read-out: AK-based Prestwick library screening result, P. aeruginosa (fold increase in extracellular AK activity)): 1

CC(CCc1ccc(O)cc1)NCCc1ccc(O)c(O)c1 (stereo not drawn) [Dobutamine hydrochloride]
fold induction at 50 µM (E. cloacae; [10]): 1.1 | fold induction at 50 µM (E. faecium; [11]): 0.8 | fold induction at 50 µM (K. pneumoniae; [12]): 0.8 | fold induction at 50 µM [1, 13]: 0.7 | fold induction at 50 µM (E. coli; [14]): 0.8 | fold induction at 50 µM [2, 15]: 0.1 | fold induction at 50 µM (P. aeruginosa; [16]): 0.6

CC(C)NCC(O)COc1cccc2[nH]ccc12 (stereo not drawn) [Pindolol]
fold induction at 50 µM (E. cloacae; 384-well format, cutoff for positive-scoring molecules 3-fold increase, read-out: AK-based Prestwick Library Screening Results, E. cloacae (increase in extracellular AK activity)): 0.4 | fold induction at 50 µM (E. faecium; 384-well format, cutoff for positive-scoring molecules 3-fold increase, read-out: AK-based Prestwick Library Screening Results, E. faecium (increase in extracellular AK activity)): 1 | fold induction at 50 µM (K. pneumoniae; 384-well format, cutoff for positive-scoring molecules 3-fold increase, read-out: AK-based Prestwick Library Screening Results, K. pneumoniae (increase in extracellular AK activity)): 0.6 | fold induction at 50 µM ([1]; 384-well format, cutoff for positive-scoring molecules 3-fold increase, read-out: AK-based Prestwick Library Screening Results, A. baumannii (increase in extracellular AK activity)): 0.5 | fold induction at 50 µM (E. coli; 384-well format, cutoff for positive-scoring molecules 3-fold increase, read-out: AK-based Prestwick Library Screening Results, E. coli (increase in extracellular AK activity)): 0.5 | fold induction at 50 µM ([2]; 384-well format, cutoff for positive-scoring molecules 3-fold increase, read-out: AK-based Prestwick Library Screening Results, S. aureus (increase in extracellular AK activity)): 0.5 | fold induction at 50 µM (P. aeruginosa; 384-well format, cutoff for positive-scoring molecules 3-fold increase, read-out: AK-based Prestwick Library Screening Results, P. aeruginosa (increase in extracellular AK activity)): 0.4

Oc1ccc(OCc2ccccc2)cc1 [Monobenzone]
fold induction at 50 µM (E. cloacae; planktonic, cutoff for positive-scoring molecules 3-fold increase, read-out: AK-based Prestwick Library Screening Results, E. cloacae (fold increase in extracellular AK activity)): 1.4 | fold induction at 50 µM (E. faecium; planktonic, cutoff for positive-scoring molecules 3-fold increase, read-out: AK-based Prestwick Library Screening Results, E. faecium (fold increase in extracellular AK activity)): 0.6 | fold induction at 50 µM (K. pneumoniae; planktonic, cutoff for positive-scoring molecules 3-fold increase, read-out: AK-based Prestwick Library Screening Results, K. pneumoniae (fold increase in extracellular AK activity)): 0.5 | fold induction at 50 µM ([1]; planktonic, cutoff for positive-scoring molecules 3-fold increase, read-out: AK-based Prestwick Library Screening Results, A. baumannii (fold increase in extracellular AK activity)): 0.5 | fold induction at 50 µM (E. coli; planktonic, cutoff for positive-scoring molecules 3-fold increase, read-out: AK-based Prestwick Library Screening Results, E. coli (fold increase in extracellular AK activity)): 0.7 | fold induction at 50 µM ([2]; planktonic, cutoff for positive-scoring molecules 3-fold increase, read-out: AK-based Prestwick Library Screening Results, S. aureus (fold increase in extracellular AK activity)): 0.6 | fold induction at 50 µM (P. aeruginosa; planktonic, cutoff for positive-scoring molecules 3-fold increase, read-out: AK-based Prestwick Library Screening Results, P. aeruginosa (fold increase in extracellular AK activity)): 0.7

Beta-Escin
AK-based Prestwick Library Screening Results, E. cloacae (fold increase in extracellular AK activity) (E. cloacae; [17]): 1.4 | AK-based Prestwick Library Screening Results, E. faecium (fold increase in extracellular AK activity) (E. faecium; [17]): 0.9 | AK-based Prestwick Library Screening Results, K. pneumoniae (fold increase in extracellular AK activity) (K. pneumoniae; [17]): 0.7 | AK-based Prestwick Library Screening Results, A. baumannii (fold increase in extracellular AK activity) [1, 17]: 0.8 | AK-based Prestwick Library Screening Results, E. coli (fold increase in extracellular AK activity) (E. coli; [17]): 0.9 | AK-based Prestwick Library Screening Results, S. aureus (fold increase in extracellular AK activity) [2, 17]: 0.8 | AK-based Prestwick Library Screening Results, P. aeruginosa (fold increase in extracellular AK activity) (P. aeruginosa; [17]): 0.7

CC(=O)OCC(=O)[C@@]1(O)[C@H](C)C[C@H]2[C@@H]3CCC4=CC(=O)C=C[C@]4(C)[C@@]3(F)[C@@H](O)C[C@@]21C [Dexamethasone acetate]
fold induction at 50 µM (E. cloacae; planktonic E. cloacae, 384-well, cutoff for positive-scoring molecules 3-fold increase, read-out: AK-based Prestwick Library Screening Results: E. cloacae (increase in extracellular AK activity)): 1.2 | fold induction at 50 µM (E. faecium; planktonic E. faecium, 384-well, cutoff for positive-scoring molecules 3-fold increase, read-out: AK-based Prestwick Library Screening Results: E. faecium (increase in extracellular AK activity)): 1.2 | fold induction at 50 µM (K. pneumoniae; planktonic K. pneumoniae, 384-well, cutoff for positive-scoring molecules 3-fold increase, read-out: AK-based Prestwick Library Screening Results: K. pneumoniae (increase in extracellular AK activity)): 1.1 | fold induction at 50 µM ([1]; planktonic A. baumannii, 384-well, cutoff for positive-scoring molecules 3-fold increase, read-out: AK-based Prestwick Library Screening Results: A. baumannii (increase in extracellular AK activity)): 1.1 | fold induction at 50 µM (E. coli; planktonic E. coli, 384-well, cutoff for positive-scoring molecules 3-fold increase, read-out: AK-based Prestwick Library Screening Results: E. coli (increase in extracellular AK activity)): 1.4 | fold induction at 50 µM ([2]; planktonic S. aureus, 384-well, cutoff for positive-scoring molecules 3-fold increase, read-out: AK-based Prestwick Library Screening Results: S. aureus (increase in extracellular AK activity)): 1.2 | fold induction at 50 µM (P. aeruginosa; planktonic P. aeruginosa, 384-well, cutoff for positive-scoring molecules 3-fold increase, read-out: AK-based Prestwick Library Screening Results: P. aeruginosa (increase in extracellular AK activity)): 1
